Test results taken from patent US20230120597A1, “CO-AGONISTS AT GLP-1 AND GIP RECEPTORS SUITABLE FOR ORAL DELIVERY” (Novo Nordisk A/S, priority 2020, published 2023).
Where two headings read alike, the source gives them in different places. Starred links: 1 amine or outer side, 2 acyl side, 3 side chain; linkers in the order of their positions; H or OH if unused. Non-standard residues stand in square brackets, D forms with d. Residues, ends and D or L forms follow the SMILES beside them. Groups on a side chain read outwards from the residue. *: point of attachment. C18 diacid = O=C(O)CCCCCCCCCCCCCCCCC(=O)*; γGlu = O=C(O)[C@H](CCC(=O)[*:2])N[*:1]; εLys = N[C@@H](CCCCN[*:1])C(=O)[*:2]; AEEA = NCCOCCOCC(=O)O; Aib = CC(C)(N)C(=O)O

Assays:
[1] = Pharmacokinetic study in dogs, oral dosing of tablet compositions with SNAC; format: in vivo, Beagle dogs; settings: dog, in vivo, po; for Tmax / half-life: male, beagle; for half-life: t1/2
Summary of the method: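 Male beagle dogs (9-17 kg), fasted, received a single oral tablet with 100-300 mg SNAC and 3-4 mg test substance, groups of 6-8.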

human GIP receptor = target: T1, human GIP receptor (Homo sapiens, UniProt P48546); experiment: In vitro functional potency, CRE luciferase reporter gene assay, whole BHK cells expressing hGIPR; format: cell-based; settings: BHK CRE luc2P hGIPR cells
T1 construct: expressed in transfected cells; host or cells: BHK (parent line BHKTS13), clone BHK CRE luc2P hGIPR
T1 sequence (P48546 22-466): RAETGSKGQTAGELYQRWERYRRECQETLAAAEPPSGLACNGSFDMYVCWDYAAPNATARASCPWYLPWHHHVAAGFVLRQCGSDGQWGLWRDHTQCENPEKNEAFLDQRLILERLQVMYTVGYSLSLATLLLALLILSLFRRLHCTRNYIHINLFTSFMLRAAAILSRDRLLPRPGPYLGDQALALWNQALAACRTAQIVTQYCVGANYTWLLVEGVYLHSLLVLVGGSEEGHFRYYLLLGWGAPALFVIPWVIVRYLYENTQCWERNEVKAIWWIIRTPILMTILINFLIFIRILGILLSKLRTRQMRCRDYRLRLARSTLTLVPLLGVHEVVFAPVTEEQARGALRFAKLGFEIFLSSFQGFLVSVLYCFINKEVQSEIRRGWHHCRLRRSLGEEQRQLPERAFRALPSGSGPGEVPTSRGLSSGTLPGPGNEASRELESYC
Experimental: (§1) The in vitro functional potency is the measure of target receptor activation in a whole cell assay.
(§2) In vitro functional potency was determined by measuring the response of the target receptor in a reporter gene assay in individual cell lines. […] When the respective receptor is activated, it results in the production of cAMP, which in turn results in expression of the luciferase protein. When assay incubation is completed, luciferase substrate (luciferin) is added resulting in the enzymatic conversion of luciferin to oxyluciferin and producing bioluminescence. The luminescence is measured as the readout for the assay.
(§3) The cells lines used in these assays were BHK cells with BHKTS13 as a parent cell line. The cell lines were derived from a clone containing the CRE luciferase element and were established by further transfection with the respective human receptor to obtain the relevant cell line: BHK CRE luc2P hGLP-1R or BHK CRE luc2P hGIPR. The cells were cultured at 37° C. with 5% CO2 in Cell Culture Medium. They were aliquoted and stored in liquid nitrogen. The cells were kept in continuous culture and were seeded out the day before each assay.
(§4) GLP-1R Cell Culture Medium consisted of DMEM medium with 10% FBS, 500 μg/mL G418, and 300 μg/mL hygromycin. GIPR Cell Culture Medium consisted of DMEM medium with 10% FBS, 400 μg/mL G418, and 300 μg/mL hygromycin. Assay Buffer consisted of DMEM w/o phenol red, 10 mM Hepes, 1× Glutamax. 1% ovalbumin, and 0.1% Pluronic F-68 with the addition of HSA at twice the final assay concentration.
(§5) Procedure • 1) Cells were plated at 5000 cells/well and incubated overnight in the assay plate. • 2) Cells were washed once in DPBS. • 3) Stocks of the test compounds and reference compounds in concentrations ranging from […] were diluted 1:150 in Assay Buffer. Compounds were then diluted 1:10 in column 1 of a 96 deep well dilution plate and then carried across the row creating a 3.5 fold, 12 point dilution curve. • 4) Assay Buffer (50 μl aliquot) with or without HSA was added to each well in the assay plate. • 5) A 50 μl aliquot of compound or blank was transferred from the dilution plate to the assay plate containing the Assay Buffer with or without HSA. • 6) The assay plate was incubated for 3 h in a 5% CO2 incubator at 37° C. • 7) The cells were washed once with DPBS. • 8) A 100 μl aliquot of DPBS was added to each well of the assay plate. • 9) A 100 μl aliquot of steadylite plus reagent (light sensitive) was added to each well of the assay plate. • 10) Each assay plate was covered with aluminum foil to protect it from light and shaken at 250 RPM for 30 min at room temperature. • 11) Each assay plate was read in a microtiter plate reader.
(§6) The data from the microtiter plate reader was first regressed in an Excel in order to calculate the x-axis, log scale concentrations based on the individual test compound's stock concentration and the dilutions of the assay. […] The software performs a non-linear regression (log(agonist) vs response). A minimum of two replicates was measured for each sample. The reported values are averages of the replicates.

human GLP-1 receptor = target: T2, human GLP-1 receptor (Homo sapiens, UniProt P43220); experiment: In vitro functional potency, CRE luciferase reporter gene assay, whole BHK cells expressing hGLP-1R; format: cell-based; settings: BHK CRE luc2P hGLP-1R cells
T2 construct: expressed in transfected cells; host or cells: BHK (parent line BHKTS13), clone BHK CRE luc2P hGLP-1R
T2 sequence (P43220 24-463): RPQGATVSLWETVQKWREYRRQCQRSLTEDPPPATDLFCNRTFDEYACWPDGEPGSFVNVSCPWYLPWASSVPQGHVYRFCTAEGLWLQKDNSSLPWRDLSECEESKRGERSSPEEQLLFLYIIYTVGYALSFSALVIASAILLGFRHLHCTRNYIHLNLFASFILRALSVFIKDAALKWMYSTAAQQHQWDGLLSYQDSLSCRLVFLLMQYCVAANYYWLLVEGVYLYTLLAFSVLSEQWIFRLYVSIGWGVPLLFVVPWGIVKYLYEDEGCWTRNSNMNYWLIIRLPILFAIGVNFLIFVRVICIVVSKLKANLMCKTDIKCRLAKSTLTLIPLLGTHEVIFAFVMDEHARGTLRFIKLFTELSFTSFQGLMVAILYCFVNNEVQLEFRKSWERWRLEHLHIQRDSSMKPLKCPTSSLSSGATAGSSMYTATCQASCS
Experimental: as §1, §2, §3, §4, §5, §6

[2] = 0% HSA, read-out: hGIPR, CRE Luc 0% HSA EC50
[3] = hGIPR, CRE Luc 1% HSA EC50, 1% HSA
[4] = 0% HSA, read-out: hGLP-1R, CRE Luc 0% HSA EC50
[5] = hGLP-1R, CRE Luc 1% HSA EC50, 1% HSA

Row | Compound | AUC/Dose [1] | Tmax [1] | half-life [1] | EC50 (human GIP receptor; [2]) | EC50 (human GIP receptor; [3]) | EC50 (human GLP-1 receptor; [4]) | EC50 (human GLP-1 receptor; [5])
1 | CC[C@H](C)[C@H](NC(=O)[C@H](Cc1ccccc1)NC(=O)[C@H](CCC(=O)O)NC(=O)[C@H](CCCNC(=N)N)NC(=O)[C@H](C)NC(=O)[C@H](C)NC(=O)[C@H](CCC(N)=O)NC(=O)[C@H](CCCCNC(=O)[C@@H](N)CCCCNC(=O)[C@@H](N)CCCCNC(=O)CC[C@H](NC(=O)CCCCCCCCCCCCCCCCC(=O)O)C(=O)O)NC(=O)[C@H](CCC(=O)O)NC(=O)[C@H](CC(C)C)NC(=O)[C@H](Cc1ccc(O)cc1)NC(=O)[C@@H](NC(=O)[C@H](CO)NC(=O)[C@H](Cc1ccc(O)cc1)NC(=O)[C@H](CC(=O)O)NC(=O)[C@H](CO)NC(=O)[C@@H](NC(=O)[C@H](Cc1ccccc1)NC(=O)[C@@H](NC(=O)CNC(=O)[C@H](CCC(=O)O)NC(=O)C(C)(C)NC(=O)[C@@H](N)Cc1ccc(O)cc1)[C@@H](C)O)[C@@H](C)O)[C@@H](C)CC)C(=O)N[C@@H](CCC(=O)O)C(=O)N[C@@H](Cc1c[nH]c2ccccc12)C(=O)N[C@@H](CC(C)C)C(=O)N[C@@H](CC(C)C)C(=O)N[C@@H](C)C(=O)NCC(=O)NCC(=O)N1CCC[C@H]1C(=O)N[C@@H](CO)C(=O)N[C@@H](CO)C(=O)NCC(=O)N[C@@H](C)C(=O)N1CCC[C@H]1C(=O)N1CCC[C@H]1C(=O)N1CCC[C@H]1C(=O)N[C@@H](CO)C(=O)O [Compound No. 9] (H-Y[Aib]EGTFTSDYSIYLEK([εLys-εLys-γGlu-C18 diacid])QAAREFIEWLLAGGPSSGAPPPS-OH) | […] | 2 h | […] | […] | […] | 0.0038 nM | 0.279 nM
2 | CC[C@H](C)[C@H](NC(=O)[C@H](Cc1ccccc1)NC(=O)[C@H](CCC(=O)O)NC(=O)[C@H](CCCNC(=N)N)NC(=O)[C@H](C)NC(=O)[C@H](C)NC(=O)[C@H](CCC(N)=O)NC(=O)[C@H](CCCCNC(=O)COCCOCCNC(=O)COCCOCCNC(=O)CC[C@H](NC(=O)CCCCCCCCCCCCCCCCC(=O)O)C(=O)O)NC(=O)[C@H](CCC(=O)O)NC(=O)[C@H](CC(C)C)NC(=O)[C@H](Cc1ccc(O)cc1)NC(=O)[C@@H](NC(=O)[C@H](CO)NC(=O)[C@H](Cc1ccc(O)cc1)NC(=O)[C@H](CC(=O)O)NC(=O)[C@H](CO)NC(=O)[C@@H](NC(=O)[C@H](Cc1ccccc1)NC(=O)[C@@H](NC(=O)CNC(=O)[C@H](CCC(=O)O)NC(=O)C(C)(C)NC(=O)[C@@H](N)Cc1ccc(O)cc1)[C@@H](C)O)[C@@H](C)O)[C@@H](C)CC)C(=O)N[C@@H](CCC(=O)O)C(=O)N[C@@H](Cc1c[nH]c2ccccc12)C(=O)N[C@@H](CC(C)C)C(=O)N[C@@H](CC(C)C)C(=O)N[C@@H](C)C(=O)NCC(=O)NCC(=O)N1CCC[C@H]1C(=O)N[C@@H](CO)C(=O)N[C@@H](CO)C(=O)NCC(=O)N[C@@H](C)C(=O)N1CCC[C@H]1C(=O)N1CCC[C@H]1C(=O)N1CCC[C@H]1C(=O)N[C@@H](CO)C(=O)O [Compound No. 10] (H-Y[Aib]EGTFTSDYSIYLEK([AEEA-AEEA-γGlu-C18 diacid])QAAREFIEWLLAGGPSSGAPPPS-OH) | 8.4 kg·h/L | 1 h | 36 h | 0.0113 nM | 1.75 nM | 0.0039 nM | 0.94 nM
3 | CC[C@H](C)[C@H](NC(=O)[C@H](Cc1ccccc1)NC(=O)[C@H](CCC(=O)O)NC(=O)[C@H](CCCNC(=N)N)NC(=O)[C@H](C)NC(=O)[C@H](C)NC(=O)[C@H](CCC(N)=O)NC(=O)[C@H](CCCCNC(=O)[C@@H](N)CCCCNC(=O)[C@@H](N)CCCCNC(=O)CC[C@H](NC(=O)CCCCCCCCCCCCCCCCC(=O)O)C(=O)O)NC(=O)[C@H](CCC(=O)O)NC(=O)[C@H](CC(C)C)NC(=O)[C@H](Cc1ccc(O)cc1)NC(=O)[C@@H](NC(=O)[C@H](CO)NC(=O)[C@H](Cc1ccc(O)cc1)NC(=O)[C@H](CC(=O)O)NC(=O)[C@H](CO)NC(=O)[C@@H](NC(=O)[C@H](Cc1ccccc1)NC(=O)[C@@H](NC(=O)CNC(=O)[C@H](CCC(=O)O)NC(=O)C(C)(C)NC(=O)[C@@H](N)Cc1ccc(O)cc1)[C@@H](C)O)[C@@H](C)O)[C@@H](C)CC)C(=O)N[C@@H](CCC(=O)O)C(=O)N[C@@H](Cc1c[nH]c2ccccc12)C(=O)N[C@@H](CC(C)C)C(=O)N[C@@H](CC(C)C)C(=O)N[C@@H](CCCNC(=N)N)C(=O)NCC(=O)NCC(=O)N1CCC[C@H]1C(=O)N[C@@H](CO)C(=O)N[C@@H](CO)C(=O)NCC(=O)N[C@@H](C)C(=O)N1CCC[C@H]1C(=O)N1CCC[C@H]1C(=O)N1CCC[C@H]1C(=O)N[C@@H](CO)C(=O)O [Compound No. 12] (H-Y[Aib]EGTFTSDYSIYLEK([εLys-εLys-γGlu-C18 diacid])QAAREFIEWLLRGGPSSGAPPPS-OH; N-terminus assumed) |  |  |  | 0.009 nM | 0.0715 nM | 0.004 nM | 0.0544 nM
4 | CC[C@H](C)[C@H](NC(=O)[C@H](CO)NC(=O)[C@H](Cc1ccc(O)cc1)NC(=O)[C@H](CC(=O)O)NC(=O)[C@H](CO)NC(=O)[C@@H](NC(=O)[C@H](Cc1ccccc1)NC(=O)[C@@H](NC(=O)CNC(=O)[C@H](CCC(=O)O)NC(=O)C(C)(C)NC(=O)[C@@H](N)Cc1ccc(O)cc1)[C@@H](C)O)[C@@H](C)O)C(=O)N[C@@H](C)C(=O)N[C@@H](CC(C)C)C(=O)N[C@@H](CCC(=O)O)C(=O)N[C@@H](CCCCNC(=O)[C@@H](N)CCCCNC(=O)[C@@H](N)CCCCNC(=O)CC[C@H](NC(=O)CCCCCCCCCCCCCCCCC(=O)O)C(=O)O)C(=O)N[C@@H](CCC(N)=O)C(=O)N[C@@H](C)C(=O)N[C@@H](C)C(=O)N[C@@H](CCCNC(=N)N)C(=O)N[C@@H](CCC(=O)O)C(=O)N[C@@H](Cc1ccccc1)C(=O)N[C@H](C(=O)N[C@@H](CC(N)=O)C(=O)N[C@@H](Cc1c[nH]c2ccccc12)C(=O)N[C@@H](CC(C)C)C(=O)N[C@@H](CC(C)C)C(=O)N[C@@H](C)C(=O)NCC(=O)NCC(=O)N1CCC[C@H]1C(=O)N[C@@H](CO)C(=O)N[C@@H](CO)C(=O)NCC(=O)N[C@@H](C)C(=O)N1CCC[C@H]1C(=O)N1CCC[C@H]1C(=O)N1CCC[C@H]1C(=O)N[C@@H](CO)C(=O)O)[C@@H](C)CC [Compound No. 14] (H-Y[Aib]EGTFTSDYSIALEK([εLys-εLys-γGlu-C18 diacid])QAAREFINWLLAGGPSSGAPPPS-OH) |  |  |  | 0.0116 nM | 0.58 nM | 0.0054 nM | 0.306 nM
